Common to all, as to assay type: cell-based
One assay addresses T1, EP2 (Homo sapiens, UniProt P43116).
T1 construct: SF295 glioblastoma cells express high endogenous EP2 and no EP4; host or cells: SF295 glioblastoma cells
Description: hEP2 cAMP Assay (SF295 glioblastoma cells, HTRF cAMP, PGE2 75 nM). The note with it: antagonistic activity, PGE2 75 nM (EC80). An outline of the steps: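 IC50 values derive from duplicate-point curves of percent cAMP relative to DMSO, read by HTRF (665/620 nm) against a cAMP calibrator. Compounds (30 μM to 0.01 nM ranges) were given 45 min at room temperature before 30 min with 75 nM PGE2, in EP2-only SF295 cells with 2 mM IBMX.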
In general terms: TR-FRET usually uses a lanthanide donor and a delayed reading to cut background.

In the next assay the target is T2, PTGER4 (EP4) (Homo sapiens, UniProt P35408).
T2 construct: host or cells: HEK 293 (PathHunter, stably transfected)
As to the kind of experiment: hEP4 b-Arrestin Assay (PathHunter HEK 293 PTGER4 b-arrestin cells, PGE2 20 nM). The note with it: antagonistic activity, beta-arrestin assay, HEK 293 PTGER4 cells, PGE2 20 nM (EC80); read-out: hEP4 b-arr IC50. As to the method: The antagonistic activities of the compounds of formula (I) on the EP2 and EP4 receptors are also determined in accordance with the following experimental method.
The assay is using the PathHunter™ HEK 293 PTGER2 and PTGER4 b-arrestin cell lines from DiscoverX. The system is based on the Enzyme Fragment Complementation Technology. Two complementing fragments of the b-galactosidase enzyme are expressed within stably transfected cells. The larger portion of b-gal, termed EA for Enzyme Acceptor, is fused to the C-terminus of b-arrestin 2. The smaller fragment, termed ProLink™ tag, is fused to PTGER2 (EP2) or PTRGER4 (EP4) at the C-terminus. Upon activation, b-arrestin is recruited which forces the interaction of ProLink and EA, allowing complementation of the two fragments of b-gal and the formation of a functional enzyme which is capable of hydrolysing the substrate and generating a chemiluminescent signal.
The HEK 293 PTGER4 b-arrestin cells (DiscoverX 93-030-4C1) are detached from culture dishes with a cell dissociation buffer (Invitrogen, 13151-014), and collected in growing medium (GM: DMEM+Glutamax-I (Invitrogen 32430)/10% FCS, 1% Penicilin/streptomycin). 5000 cells per well of a 384 well plate (white with white bottom Greiner 781080) are seeded in 20 ul per well of GM. Plate is incubated at 37° C., 5% CO2 for 24 hours.
Stock solutions of test compounds are made at a concentration of 10 mM in DMSO, and serially diluted in DMSO to concentrations required for inhibition dose response curves (tested concentration range 10 μM-2 nM or 1 μM-0.2 nM).
PGE2 (Cayman 14010, stock solution: 100 μM in DMSO) is used as agonist at 20 nM final concentration, corresponding to EC80.
Five microliters of diluted compounds are transferred into the assay plate. Plate is pre-incubated 15 minutes at 37° C. Then five microliters of PGE2 (final conc. 20 nM) are transferred into the assay plate. Plate is incubated 120 minutes at 37° C.
PathHunter Glo Detection Kit components are thawed and mix according to manufacturer's instructions: 1 part Galacton Star Substrate with 5 parts Emerald II™ Solution, and 19 parts of PathHunter Cell Assay Buffer, respectively. Twelve μl of reagent are transferred to the assay plate and incubate for 1 hour at room temperature in the dark. Luminescence counts are read on a BMG Fluostar Optima reader according to manufacturer's instructions.
For each compound concentration calculate of the percentage of activity compared to DMSO control value as average ±STDEV. (each concentration is measured in duplicate)
IC50 values and curves are generated with XLfit software (IDBS) using Dose-Response One Site model 203. When compounds were measured multiple times, mean values are given.

Another assay deals with T3, EP4 (Homo sapiens, UniProt P35408).
T3 construct: BT549 breast cancer cells, express high endogenous EP4 levels and very low EP2 levels; host or cells: BT549 breast cancer cells
As to the kind of experiment: hEP4 cAMP Assay (BT549 breast cancer cells, HTRF cAMP, PGE2 6 nM). Conditions: antagonistic activity, PGE2 6 nM (EC80). Put shortly:
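Antagonism is measured as inhibition of PGE2 (6 nM final, EC80) cAMP accumulation in EP4-expressing BT549 breast cancer cells, after a 45 min room-temperature compound pre-incubation and 30 min agonist step, with 2 mM IBMX present. HTRF ratio gives cAMP relative to DMSO; IC50 fitted, means over repeat runs.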

In a further assay the target is T4, PTGER2 (EP2) (Homo sapiens, UniProt P43116).
T4 construct: host or cells: HEK 293 (PathHunter, stably transfected)
As to the kind of experiment: hEP2 b-Arrestin Assay (PathHunter HEK 293 PTGER2 b-arrestin cells, PGE2 5 μM). The note with it: antagonistic activity, beta-arrestin assay, HEK 293 PTGER2 cells, PGE2 5 μM (EC80); read-out: hEP2 b-arr IC50. An outline of the steps:
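PathHunter enzyme-fragment complementation in HEK 293 cells: compounds (10 μM-2 nM or 1 μM-0.2 nM) pre-incubated 15 min at 37 °C, then 5 μM PGE2 (EC80) for 120 min at 37 °C. Chemiluminescence read after 1 h detection; IC50 from duplicate dose-response fits, means of repeats.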

pIC50: −log10 of the molar value.

T1 sequence (P43116 whole entry): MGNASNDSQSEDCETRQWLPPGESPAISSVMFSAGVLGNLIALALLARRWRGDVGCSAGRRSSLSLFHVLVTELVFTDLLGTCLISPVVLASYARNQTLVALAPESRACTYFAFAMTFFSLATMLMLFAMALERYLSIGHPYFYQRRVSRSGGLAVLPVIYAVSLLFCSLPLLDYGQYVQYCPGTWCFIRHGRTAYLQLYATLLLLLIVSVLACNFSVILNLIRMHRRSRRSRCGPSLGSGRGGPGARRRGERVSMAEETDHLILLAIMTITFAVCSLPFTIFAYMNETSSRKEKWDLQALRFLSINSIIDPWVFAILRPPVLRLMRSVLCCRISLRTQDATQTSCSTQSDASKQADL
T4 sequence (P43116 whole entry): as above
T3 sequence (P35408 whole entry): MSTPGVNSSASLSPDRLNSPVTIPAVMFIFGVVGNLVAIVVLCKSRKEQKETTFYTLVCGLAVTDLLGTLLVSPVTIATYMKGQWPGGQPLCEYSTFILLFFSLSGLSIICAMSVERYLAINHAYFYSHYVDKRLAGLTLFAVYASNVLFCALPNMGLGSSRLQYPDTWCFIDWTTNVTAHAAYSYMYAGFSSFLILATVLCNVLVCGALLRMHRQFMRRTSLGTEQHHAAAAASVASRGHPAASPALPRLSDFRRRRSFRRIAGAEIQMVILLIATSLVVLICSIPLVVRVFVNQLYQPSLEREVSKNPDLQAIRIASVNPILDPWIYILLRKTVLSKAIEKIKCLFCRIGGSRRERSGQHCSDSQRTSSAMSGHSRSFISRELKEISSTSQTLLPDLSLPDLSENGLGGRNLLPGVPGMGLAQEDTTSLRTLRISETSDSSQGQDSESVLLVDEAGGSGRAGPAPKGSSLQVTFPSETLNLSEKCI
T2 sequence (P35408 whole entry): as above

As a reminder, the pIC50 is the negative decadic logarithm of the IC50, by convention in mol/L. `Cc1c(C)n(C)c2c(CCNc3cc(-c4ccc(C(=O)O)c(OC5CCC5)c4)ncn3)cccc12` [Example 28, 2-Cyclobutoxy-4-{6-[2-(1,2,3-trimethyl-1H-indol-7-yl)-ethylamino]-pyrimidin-4-yl}-benzoic acid]: the pIC50 was 6.16 on EP2, 5.85 at PTGER4 (EP4) and 6.01 against EP4.

Consider `CCOc1cc(-c2cc(NCCc3c(OC)ccc4c(OC)cccc34)ncn2)sc1C(=O)O` [Example 53, 5-{6-[2-(2,5-Dimethoxy-naphthalen-1-yl)-ethylamino]-pyrimidin-4-yl}-3-ethoxy-thiophene-2-carboxylic acid], for which the pIC50 was 6.52 at EP2, 8.30 at PTGER4 (EP4) and 7.77 against EP4.

On to `CCOc1cc(-c2cc(NCCc3ccc(C(F)F)c4ccccc34)ncn2)ccc1C(=O)O` [Example 71, 4-{6-[2-(4-Difluoromethyl-naphthalen-1-yl)-ethylamino]-pyrimidin-4-yl}-2-ethoxy-benzoic acid], for which the results for the pIC50 at EP2, at PTGER4 (EP4) and at EP4 were 6.43, 7.04 and 6.89, respectively.

In the case of `CCOc1cc(-c2cc(NCCc3ccc(C(F)F)c4ccccc34)ncn2)ccc1OCC(=O)O` [Example 73, (4-{6-[2-(4-Difluoromethyl-naphthalen-1-yl)-ethylamino]-pyrimidin-4-yl}-2-ethoxy-phenoxy)-acetic acid], the results for the negative logarithm of the IC50 (pIC50) against EP2, at PTGER4 (EP4) and at EP4 were 6.33, 7.47 and 6.99, respectively.

Consider `CCOc1cc(-c2cc(NCCc3ccc(C)c4ccccc34)ncn2)ccc1OCC(=O)O` [Example 76, (2-Ethoxy-4-{6-[2-(4-methyl-naphthalen-1-yl)-ethylamino]-pyrimidin-4-yl}-phenoxy)-acetic acid], for which the values for the pIC50 at EP2, at PTGER4 (EP4) and at EP4 were 6.59, 7.18 and 6.94, respectively.

As to `CCOc1cc(-c2cc(NCCc3ccc(C)c4ccccc34)ncn2)ccc1CC(=O)O` [Example 99, (2-Ethoxy-4-{6-[2-(4-methyl-naphthalen-1-yl)-ethylamino]-pyrimidin-4-yl}-phenyl)-acetic acid], the pIC50 against EP2 was 6.12; at PTGER4 (EP4), 6.75; at EP4, 6.65.

`COc1ccc2ncccc2c1CCNc1cc(-c2ccc3c(=O)[nH]n(C)c3c2)ncn1` [Example 117, 6-{6-[2-(6-Methoxy-quinolin-5-yl)-ethylamino]-pyrimidin-4-yl}-1-methyl-1,2-dihydro-indazol-3-one]: the pIC50 at EP2 was 6.25; on PTGER4 (EP4) it was 6.16; against EP4, 6.79.

Consider `COc1ccc2cc(F)cc(CCNc3cc(-c4cc(C(F)(F)F)c(C(=O)O)s4)ncn3)c2n1` [Example 152, 5-{6-[2-(6-Fluoro-2-methoxy-quinolin-8-yl)-ethylamino]-pyrimidin-4-yl}-3-trifluoromethyl-thiophene-2-carboxylic acid], for which the pIC50 against EP2 is 6.30; on PTGER4 (EP4), 6.97; against EP4, 6.71.

For the compound `CCOc1cc(-c2cc(NCCc3ccc(Br)c4ccn(C)c34)ncn2)ccc1CC(=O)O` [Example 161, (4-{6-[2-(4-Bromo-1-methyl-1H-indol-7-yl)-ethylamino]-pyrimidin-4-yl}-2-ethoxy-phenyl)-acetic acid], the negative-log IC50 (pIC50) at PTGER4 (EP4) is 6.44; at PTGER2 (EP2), 6.20.

On to `CCOc1cc(-c2cc(NCCc3ccc(Br)c4ccccc34)ncn2)ccc1CC(=O)O` [Example 162, (4-{6-[2-(4-Bromo-naphthalen-1-yl)-ethylamino]-pyrimidin-4-yl}-2-ethoxy-phenyl)-acetic acid], for which the pIC50 at PTGER4 (EP4) was 6.94; at PTGER2 (EP2) it was 6.66.

Turning to `CCOc1cc(-c2cc(NCCc3cc(F)cc4sccc34)ncn2)ccc1CC(=O)O` [Example 165, (2-Ethoxy-4-{6-[2-(6-fluoro-benzo[b]thiophen-4-yl)-ethylamino]-pyrimidin-4-yl}-phenyl)-acetic acid], the pIC50 on PTGER4 (EP4) was 6.26; at PTGER2 (EP2) it was 6.06.

As for `CCOc1cc(-c2cc(NCCc3c(OC)ccc4sccc34)ncn2)ccc1CC(=O)O` [Example 166, (2-Ethoxy-4-{6-[2-(5-methoxy-benzo[b]thiophen-4-yl)-ethylamino]-pyrimidin-4-yl}-phenyl)-acetic acid], the pIC50 at PTGER4 (EP4) was 6.67; at PTGER2 (EP2), 7.29.

Regarding `CCOc1cc(-c2cc(NCCc3c(OC)ccc4c3ccn4C)ncn2)ccc1CC(=O)O` [Example 167, (2-Ethoxy-4-{6-[2-(5-methoxy-1-methyl-1H-indol-4-yl)-ethylamino]-pyrimidin-4-yl}-phenyl)-acetic acid], the pIC50 at PTGER4 (EP4) is 6.12; on PTGER2 (EP2), 7.16.

Consider `COc1ccc2ccn(C)c2c1CCNc1cc(-c2ccc(C(=O)O)c(SC)c2)ncn1` [Example 168, 4-{6-[2-(6-Methoxy-1-methyl-1H-indol-7-yl)-ethylamino]-pyrimidin-4-yl}-2-methylsulfanyl-benzoic acid], for which the values for the pIC50 at PTGER4 (EP4) and on PTGER2 (EP2) were 6.97 and 7.03, respectively.

As to `CSc1cc(-c2cc(NCCc3ccc(Br)c4ccn(C)c34)ncn2)ccc1C(=O)O` [Example 169, 4-{6-[2-(4-Bromo-1-methyl-1H-indol-7-yl)-ethylamino]-pyrimidin-4-yl}-2-methylsulfanyl-benzoic acid], the pIC50 on PTGER4 (EP4) is 6.46; on PTGER2 (EP2), 6.64.

`CSc1cc(-c2cc(NCCc3c(Br)cc(F)c4ccccc34)ncn2)ccc1C(=O)O` [Example 170, 4-{6-[2-(2-Bromo-4-fluoro-naphthalen-1-yl)-ethylamino]-pyrimidin-4-yl}-2-methylsulfanyl-benzoic acid]: the pIC50 on PTGER4 (EP4) was 6.39; at PTGER2 (EP2), 6.32.

Turning to `CSc1cc(-c2cc(NCCc3cccc4c(F)cccc34)ncn2)ccc1C(=O)O` [Example 172, 4-{6-[2-(5-Fluoro-naphthalen-1-yl)-ethylamino]-pyrimidin-4-yl}-2-methylsulfanyl-benzoic acid], the negative-log IC50 (pIC50) at PTGER4 (EP4) was 6.22; at PTGER2 (EP2) it was 7.35.

Take `COc1ccc2sccc2c1CCNc1cc(-c2ccc(C(=O)O)c(SC)c2)ncn1` [Example 174, 4-{6-[2-(5-Methoxy-benzo[b]thiophen-4-yl)-ethylamino]-pyrimidin-4-yl}-2-methylsulfanyl-benzoic acid]: the pIC50 was 6.53 at PTGER4 (EP4) and 8.10 at PTGER2 (EP2).

With `COc1ccc2c(ccn2C)c1CCNc1cc(-c2ccc(C(=O)O)c(SC)c2)ncn1` [Example 175, 4-{6-[2-(5-Methoxy-1-methyl-1H-indol-4-yl)-ethylamino]-pyrimidin-4-yl}-2-methylsulfanyl-benzoic acid], the pIC50 on PTGER4 (EP4) was 6.61; at PTGER2 (EP2), 8.52.

As for `CSc1cc(-c2cc(NCCc3c(C)ccc4c3ccn4C)ncn2)ccc1C(=O)O` [Example 176, 4-{6-[2-(1,5-Dimethyl-1H-indol-4H)-ethylamino]-pyrimidin-4-yl}-2-methylsulfanyl-benzoic acid], the results for the negative logarithm of the IC50 (pIC50) at PTGER4 (EP4) and on PTGER2 (EP2) were 6.26 and 8.52, respectively.
